{"source": "patent US7915050B2", "about": "“Regulatory genes for plant differentiation and growth, and use of the same” (National University Corporation Nagoya University, priority 2005, dated 2011)", "key": {"AtGID1c": {"molecular_target": "T1, AtGID1c (Arabidopsis thaliana, UniProt Q940G6)", "T1 construct": "made in house; host or cells: E. coli", "T1 sequence (Q940G6 1-344)": "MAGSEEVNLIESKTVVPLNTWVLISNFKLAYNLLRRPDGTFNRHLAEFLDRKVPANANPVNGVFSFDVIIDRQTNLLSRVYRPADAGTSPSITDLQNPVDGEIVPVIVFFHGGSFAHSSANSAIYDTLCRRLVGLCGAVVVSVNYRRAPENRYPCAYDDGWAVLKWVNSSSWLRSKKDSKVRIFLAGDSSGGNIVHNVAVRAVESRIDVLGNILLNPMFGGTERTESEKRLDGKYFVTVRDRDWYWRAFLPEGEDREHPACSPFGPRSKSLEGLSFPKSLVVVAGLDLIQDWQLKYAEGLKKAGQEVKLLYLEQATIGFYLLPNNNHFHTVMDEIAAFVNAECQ", "assay": "Competitive ability of GA in AtGID1-GA binding (AtGID1c)", "procedure": "(§1) In the gibberellin-binding assay, [1,2,16,17-^3H4]16,17-dihydro-GA4 was used as a labeled GA4. In vitro GA-binding assays were carried out using previous methods with some modifications (Nakajima, M. et al., Biochem. Biophys. Res. Comm. 241, 782-786 (1997)). The purified recombinant GID1 protein (400 pmol) was dissolved in 300 μl of binding buffer [20 mM Tris-HCl (pH 7.6), 5 mM 2-mercaptoethanol, and 0.1 M NaCl], and incubated with 100 μl of ^3H4-16,17-dihydroGA4 (6 pmol) for two hours at 25° C., either in the absence of non-labeled GA4 (total binding) or in the presence of 833-fold excess non-labeled GA4 (total non-specific binding). Then, 0.1 ml of the reaction mixture was loaded onto a NAP-5 column (Amersham Biosciences, Piscataway, N.J.). The eluate of the binding buffer (0.6 ml) was discarded, the subsequent eluate (0.2 ml) was collected, and the radioactivity was measured. The specific binding activity, reflecting the number of displaceable GA binding sites, was calculated by subtracting the amount of nonspecific binding from the amount of total binding. The same as above can also be carried out for other GAs.\n(§2) Specifically, the coding region of the AtGID1 gene was amplified by PCR using specific primers designed based on the full-length cDNA sequence of the AtGID1 gene and having appropriate restriction sites at each end. After confirmation by sequence analysis, each cDNA fragment was ligated into pET32a vector (Novagen/Merck Biosciences, Madison, Wis., USA) or pGEX-4T-2 vector (Amersham Biosciences, Piscataway, N.J., USA; currently, a part of GE Healthcare). The production of recombinant proteins was confirmed by SDS-PAGE; vector cassettes were used as negative controls. GA binding assays were carried out similarly as described above using [1,2,16,17-^3H4]-16,17-dihydro-GA4 (4.55 TBq/mmol), which was custom-made by DuPont/NEN (Boston, Mass., USA). Non-labeled GA4 (1.25 mM) was used to measure non-specific binding. Saturation experiments for the kinetic analysis were carried out using ten concentrations of 16,17-dihydro-GA4 within the range of 25 to 1,500 nM. Competition assays were performed using [1,2,16,17-^3H4]-16,17-dihydro-GA4 at 15 nM and five concentrations of the non-labeled competitor. Recombinant RGA and GAI proteins were prepared using pET32a by a previously described method.\n(§3) The ligand selectivity of each AtGID1 was examined by observing the competitive inhibition, by the addition of GA to the assay mixtures, of the binding between the recombinant proteins and tritiated 16,17-dihydro-GA4 (Table 2). The ligand selectivity was evaluated using the concentration of GA that inhibits 50% of the tracer (15 nM) binding (IC50 value)."}, "[1]": {"system": "GA-deficient Arabidopsis mutant ga1-3 seeds", "assay": "Germination of GA-deficient ga1-3 seeds", "assay_type": "in vivo", "procedure": "The germination of GA-deficient gal-3 seeds in a medium containing 16,17-dihydro-GA4 was tested, according to the method of Yamaguchi et al. (Plant Cell, 10, 2115-2126, […]). Approximately 70 to 80 seeds were used per each dish. Three independent measurements were carried, and the standard deviation (SD) was determined from these measurements. The seeds were assessed for germination at 23° C. on day 4, after cold treatment at 4° C. for 3 days. GA4 was used as a reference."}, "AtGID1b": {"molecular_target": "T2, AtGID1b (Arabidopsis thaliana, UniProt Q9LYC1)", "T2 construct": "made in house; host or cells: E. coli", "T2 sequence (Q9LYC1 1-358)": "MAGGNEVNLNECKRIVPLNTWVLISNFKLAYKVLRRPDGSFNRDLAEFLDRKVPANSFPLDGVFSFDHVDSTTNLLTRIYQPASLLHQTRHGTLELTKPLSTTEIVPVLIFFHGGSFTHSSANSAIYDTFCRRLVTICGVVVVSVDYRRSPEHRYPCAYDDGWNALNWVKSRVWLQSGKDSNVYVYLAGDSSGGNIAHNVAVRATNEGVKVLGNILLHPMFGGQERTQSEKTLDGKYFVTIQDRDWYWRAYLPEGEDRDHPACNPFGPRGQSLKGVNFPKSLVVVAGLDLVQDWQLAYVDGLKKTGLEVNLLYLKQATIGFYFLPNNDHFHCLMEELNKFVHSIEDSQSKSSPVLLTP", "assay": "Competitive ability of GA in AtGID1-GA binding (AtGID1b)", "procedure": "as §1, §2, §3"}, "[2]": {"details": "tracer 15 nM, mean of at least two measurements"}}}
{"smiles": "CC1C[C@]23C[C@H]1CCC2[C@]12CC[C@H](O)[C@](C)(C(=O)O1)[C@H]2[C@@H]3C(=O)O", "note": "(some centres unmarked) [H2-GA4, 16,17-dihydro-GA4]", "values": [{"measurement": "relative value, taking the value for GA4 as 100", "setting": "AtGID1c", "result": "(6) %"}, {"measurement": "IC50", "setting": "AtGID1c; [2]", "result": 5000, "unit": "nM"}, {"measurement": "physiological effect on germination relative to GA4", "setting": "[1]", "result": "about 1/10"}, {"measurement": "relative value, taking the value for GA4 as 100", "setting": "AtGID1b", "result": "(8) %"}, {"measurement": "IC50", "setting": "AtGID1b; [2]", "result": 400, "unit": "nM"}]}
